Experimental data published in ChEMBL document CHEMBL1201862, “PubChem BioAssay data set” (2004).
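1) Cells in 96-well plates. 2) Compound, 48 h, 5 concentrations. 3) Linear interpolation between surrounding doses. 4) Unreached endpoint = highest concentration. The concentration for 50% growth inhibition is given as GI50.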 Calls of active or inactive are those of the source. Rule as the data show it: active = GI50 up to about 1.1 µM and inactive = higher.

Assays:
Experiment in all cases: DTP human tumour cell line panel, 48 h
786-0 = system: 786-0
A498 = system: A498
A549 = system: A549
ACHN = system: ACHN
BT-549 = system: BT-549
CAKI-1 = system: CAKI-1
CCRF-CEM = system: CCRF-CEM
COLO 205 = system: COLO 205
DU-145 = system: DU-145
EKVX = system: EKVX
HCC 2998 = system: HCC 2998
HCT-116 = system: HCT-116
HCT-15 = system: HCT-15
HL-60 = system: HL-60
HOP-62 = system: HOP-62
HOP-92 = system: HOP-92
HT-29 = system: HT-29
Hs-578T = system: Hs-578T
IGROV-1 = system: IGROV-1
K562 = system: K562
KM12 = system: KM12
LOX IMVI = system: LOX IMVI
M14 = system: M14
MCF7 = system: MCF7
MDA-MB-231 = system: MDA-MB-231
MDA-MB-435 = system: MDA-MB-435
MDA-N = system: MDA-N
MOLT-4 = system: MOLT-4
Malme-3M = system: Malme-3M
NCI-H226 = system: NCI-H226
NCI-H23 = system: NCI-H23
NCI-H460 = system: NCI-H460
NCI-H522 = system: NCI-H522
NCI/ADR-RES = system: NCI/ADR-RES
OVCAR-3 = system: OVCAR-3
OVCAR-4 = system: OVCAR-4
OVCAR-5 = system: OVCAR-5
OVCAR-8 = system: OVCAR-8
PC-3 = system: PC-3
RPMI-8226 = system: RPMI-8226
RXF 393 = system: RXF 393
SF-295 = system: SF-295
SF-539 = system: SF-539
SK-MEL-28 = system: SK-MEL-28
SK-MEL-2 = system: SK-MEL-2
SK-MEL-5 = system: SK-MEL-5
SK-OV-3 = system: SK-OV-3
SN12C = system: SN12C
SNB-19 = system: SNB-19
SNB-75 = system: SNB-75
SR = system: SR
SW-620 = system: SW-620
T47D = system: T47D
TK-10 = system: TK-10
U-251 = system: U-251
UACC-62 = system: UACC-62
UO-31 = system: UO-31
SF-268 = system: SF-268
UACC-257 = system: UACC-257

Measured: GI50

CCOP(C)(=O)/C(Cc1ccc(OC)c(OC)c1)=N\O (stereo not given)
inactive: 786-0 > 100 µM | A498 > 100 µM | A549 > 100 µM | ACHN > 100 µM | BT-549 > 100 µM | CAKI-1 > 100 µM | CCRF-CEM > 100 µM | COLO 205 > 100 µM | DU-145 > 100 µM | EKVX > 100 µM | HCC 2998 > 100 µM | HCT-116 > 100 µM | HL-60 > 100 µM | HOP-62 > 100 µM | HOP-92 > 100 µM | HT-29 > 100 µM | Hs-578T > 100 µM | IGROV-1 > 100 µM | K562 > 100 µM | KM12 > 100 µM | LOX IMVI > 100 µM | M14 > 100 µM | MCF7 > 100 µM | MDA-MB-231 > 100 µM | MDA-MB-435 > 100 µM | MDA-N > 100 µM | MOLT-4 > 100 µM | Malme-3M > 100 µM | NCI-H226 > 100 µM | NCI-H23 > 100 µM | NCI-H460 > 100 µM | NCI-H522 > 100 µM | NCI/ADR-RES > 100 µM | OVCAR-3 > 100 µM | OVCAR-4 > 100 µM | OVCAR-5 > 100 µM | OVCAR-8 > 100 µM | PC-3 > 100 µM | RPMI-8226 > 100 µM | RXF 393 > 100 µM | SF-295 > 100 µM | SF-539 > 100 µM | SK-MEL-28 > 100 µM | SK-MEL-2 > 100 µM | SK-MEL-5 > 100 µM | SK-OV-3 > 100 µM | SN12C > 100 µM | SNB-19 > 100 µM | SNB-75 > 100 µM | SR > 100 µM | SW-620 > 100 µM | T47D > 100 µM | TK-10 > 100 µM | U-251 > 100 µM | UACC-62 > 100 µM | UO-31 > 100 µM
> 100 µM: HCT-15

COc1cc([N+](=O)[O-])ccc1NC1=CC(=O)CCC1
inactive: 786-0 > 100 µM | A498 > 100 µM | A549 > 100 µM | ACHN > 100 µM | BT-549 > 100 µM | CAKI-1 49.5 µM | CCRF-CEM > 100 µM | COLO 205 > 100 µM | DU-145 > 100 µM | EKVX > 100 µM | HCC 2998 > 100 µM | HCT-116 > 100 µM | HL-60 > 100 µM | HOP-62 > 100 µM | HOP-92 > 100 µM | HT-29 > 100 µM | Hs-578T > 100 µM | IGROV-1 > 100 µM | K562 > 100 µM | KM12 > 100 µM | LOX IMVI > 100 µM | M14 > 100 µM | MCF7 > 100 µM | MDA-MB-231 > 100 µM | MDA-MB-435 > 100 µM | MDA-N > 100 µM | MOLT-4 > 100 µM | Malme-3M > 100 µM | NCI-H226 > 100 µM | NCI-H23 > 100 µM | NCI-H460 > 100 µM | NCI/ADR-RES > 100 µM | OVCAR-3 > 100 µM | OVCAR-4 > 100 µM | OVCAR-5 > 100 µM | OVCAR-8 > 100 µM | PC-3 > 100 µM | RPMI-8226 > 100 µM | RXF 393 > 100 µM | SF-268 > 100 µM | SF-295 > 100 µM | SF-539 > 100 µM | SK-MEL-28 59.4 µM | SK-MEL-2 > 100 µM | SK-MEL-5 > 100 µM | SK-OV-3 > 100 µM | SN12C > 100 µM | SNB-19 > 100 µM | SNB-75 27.6 µM | SR > 100 µM | SW-620 > 100 µM | T47D > 100 µM | TK-10 > 100 µM | U-251 > 100 µM | UACC-257 > 100 µM | UACC-62 > 100 µM | UO-31 > 100 µM
> 100 µM: HCT-15
